Reference: publication PMC7402526, “An in vitro quantitative systems pharmacology approach for deconvolving mechanisms of drug-induced, multilineage cytopenias” (PLoS Computational Biology, 2020)
Read-outs that look alike come from different tables or passages of the source.

Assays:
Format in all cases: cell-based, human
[1] = tested on: granulocyte-macrophage progenitor (GMPs); assay: MLTA, GMPs: concentration-response and QSP model fit; details: for EC50 / EmaxT,GMP: QSP model parameter, sheet EC50_parameters, GMPs; for Emax_drug_GMP: parameter from QSP model fitting
Description: (§1) A custom optimized cytokine cocktail was developed using commercially available cytokines (Peprotech, New Jersey) to facilitate simultaneous multi-lineage differentiation and self-renewal of freeze-thawed primary human bone marrow-derived CD34+ cells in SFEM II media (cells and media from StemCell Technologies, Vancouver). Cultures were carried out in ultra-low attachment 96-well plates (Corning, New York) with test article added on day 0 and cultured at 37°C, 85% relative humidity, and 5% CO2 for six days before interrogating drug impact via 17-parameter flow cytometry.
(§2) The flow cytometry panel used to define hematopoietic subsets was composed of CD34-PECy7, CD90-PECY5, CD38-AF488, CD371-PE, CD45Ra-BV421, CD14-BV605, CD42b-AF647, CD10-PEDazzle594, CD235a-PerCPCy5.5 (BioLegend, California), CD15-BUV395, CD41a-APCH7, CD71-BV786 (BD Biosciences, California), and DAPI for dead cell exclusion (ThermoFisher, California). In short, Day 6 cells were harvested, FcR-blocked (FcR binding inhibitor, ThermoFisher), surface-stained, then analyzed in a buffer containing TruCount Control Beads using a BD LSR Fortessa SORP fitted with a high-throughput sampler (BD Biosciences, California). Data was analyzed in Diva 6.0.2 and exported to CSV where after all cell data was transformed to cell per mL then normalized on a per-donor basis to untreated control wells to determine drug impact.
(§3) Donor material was collected and cultured as described above. The number of replicate donor samples per drug ranged from 2–7 and varied per drug (S1 Table). Drug treatment was added at time 0 and cells were maintained in culture for 6 days. Concentrations tested for each drug compound are contained in S1 Table. Concentrations were selected to span a range that is clinically useful. Following treatment, cell populations were measured using flow cytometry. We extracted cell counts from flow cytometry data, normalized to bead counts, and corrected for well volume.
(§4) Each well was normalized to the average of six vehicle control wells. For drugs that were tested across multiple runs of the assay, vehicle-normalized donor data were pooled, and we used the average of these pooled data for further modeling. Normalized data used as model inputs are included in S1 Table.
(§5) We implemented drug effects using an Emax model for the drug’s effect on each cell type. The 13 maximum effect parameters (EmaxT,C) are unitless and can vary between 0 and 2 and where a subscript, C, represents one of the previously described 13 cell types. We adapted a traditional Emax model using the equations below. We interpreted EmaxT values less than or equal to one as anti-proliferative, and EmaxT values greater than one as indicating a cell-killing mechanism in addition to anti-proliferation. The relationships for these effects are included in the model using the following equations. Eq 2 describes the drug anti-proliferative effect in the net proliferation rate for a given cell type. Eq 3 describes the cell-killing EmaxCK effect.
(§6) Towards the estimation of mechanistic parameters, we considered different formulations: (a) weighting the objective value to prioritize fitting dead cells and (b) using regularization methodology to encourage a parsimonious solution. We assessed the contributions of these formulations using mean-squared error and goodness of fit plots for drugs with known mechanisms. […] Further, we used L1 regularization to penalize parameters […] to help identify a parsimonious set of parameters to explain drug effects.

[2] = tested on: MK cells (MK-lin); assay: MLTA, MK: concentration-response and QSP model fit; details: for EC50 / EmaxT,MK: QSP model parameter, sheet EC50_parameters, MK
Description: as §1, §2, §3, §4, §5, §6

[3] = tested on: granulocyte progenitor (Gran-lin prog); assay: MLTA, GranP: concentration-response and QSP model fit; details: for EmaxT,GranP / EC50: QSP model parameter, sheet EC50_parameters, GranP; for EC50: read-out: EC50GranP
Description: as §1, §2, §3, §4, §5, §6

[4] = tested on: hematopoietic stem cells (HSCs); assay: Multi-lineage toxicity assay (MLTA), HSCs: concentration-response and QSP model fit; set-up: EmaxAP,HSC / EmaxT,HSC / Emax_drug_HSC: unitless, 0–2; ≤1 anti-proliferative, >1 adds cell killing; details: for EC50 / EmaxT,HSC: QSP model parameter, sheet EC50_parameters, HSCs
Description: as §1, §2, §3, §4, §5, §6

[5] = tested on: multi-potent progenitors (MPPs); assay: MLTA, MPPs: concentration-response and QSP model fit; details: for EC50 / EmaxT,MPP: QSP model parameter, sheet EC50_parameters, MPPs
Description: as §1, §2, §3, §4, §5, §6

[6] = tested on: granulocytes (Gran-lin); assay: MLTA, Gran: concentration-response and QSP model fit; details: for EC50 / EmaxT,Gran: QSP model parameter, sheet EC50_parameters, Gran
Description: as §1, §2, §3, §4, §5, §6

[7] = tested on: monocytes (monocyte-lin); assay: MLTA, Mono: concentration-response and QSP model fit; details: for EC50 / EmaxT,Mono: QSP model parameter, sheet EC50_parameters, Mono
Description: as §1, §2, §3, §4, §5, §6

[8] = tested on: late erythroid cells (Eryth II); assay: MLTA, ErythII: concentration-response and QSP model fit; details: for EmaxT,ErythroidII / EC50: QSP model parameter, sheet EC50_parameters, Erythroid II; for EC50: read-out: EC50ErythroidII
Description: as §1, §2, §3, §4, §5, §6

[9] = tested on: early erythroid cells (Eryth I); assay: MLTA, ErythI: concentration-response and QSP model fit; details: for EmaxT,ErythroidI / EC50: QSP model parameter, sheet EC50_parameters, Erythroid I; for EC50: read-out: EC50ErythroidI
Description: as §1, §2, §3, §4, §5, §6

[10] = tested on: monocyte progenitors (monocyte prog); assay: MLTA, MonoP: concentration-response and QSP model fit; details: for EmaxT,MonoP / EC50: QSP model parameter, sheet EC50_parameters, MonoP; for EC50: read-out: EC50MonoP
Description: as §1, §2, §3, §4, §5, §6

[11] = tested on: lymphocyte progenitors (LymP); assay: MLTA, LymP: concentration-response and QSP model fit; details: for EC50 / EmaxT,LymP: QSP model parameter, sheet EC50_parameters, LymP
Description: as §1, §2, §3, §4, §5, §6

[12] = tested on: B cells (B-lin); assay: MLTA, B-lin: concentration-response and QSP model fit; details: for EC50 / EmaxT,B: QSP model parameter, sheet EC50_parameters, B
Description: as §1, §2, §3, §4, §5, §6

[13] = tested on: neutrophils (neutrophil-lin); assay: MLTA, Neut: concentration-response and QSP model fit; details: for EC50 / EmaxT,Neut: QSP model parameter, sheet EC50_parameters, Neut
Description: as §1, §2, §3, §4, §5, §6

[14] = parameter from QSP model fitting

## O=c1[nH]cc(F)c(=O)[nH]1 [5-FU]
[1]
  EC50: 753 nM
  EmaxT,GMP: 1.5687
  Emax_drug_GMP: 1.5687
[2]
  EC50: 1110 nM
  EmaxT,MK: 0.3220
[2]; [14]
  Emax_drug_MK: 0.3220
[3]
  EmaxT,GranP: 0.0162
  EC50: 302 nM
[3]; [14]
  Emax_drug_GranP: 0.0162
[4]
  EC50: 1910 nM
  EmaxT,HSC: 0.7982
[4]; [14]
  Emax_drug_HSC: 0.7982
[5]
  EC50: 939 nM
  EmaxT,MPP: 0.000528
[5]; [14]
  Emax_drug_MPP: 0.000528
[6]
  EC50: 0.117 nM
  EmaxT,Gran: 0.1807
[6]; [14]
  Emax_drug_Gran: 0.1807
[7]
  EC50: 299 nM
  EmaxT,Mono: 0.3048
[7]; [14]
  Emax_drug_Mono: 0.3048
[8]
  EmaxT,ErythroidII: 0.0352
  EC50: 1780 nM
[8]; [14]
  Emax_drug_ErythroidII: 0.0352
[9]
  EmaxT,ErythroidI: 2.3324
  EC50: 921 nM
[9]; [14]
  Emax_drug_ErythroidI: 2.3324
[10]
  EmaxT,MonoP: 0.0016
  EC50: 178 nM
[10]; [14]
  Emax_drug_MonoP: 0.0016
[11]
  EC50: 37 nM
  EmaxT,LymP: 0.0016
[11]; [14]
  Emax_drug_LymP: 0.0016
[12]
  EC50: 1090 nM
  EmaxT,B: 0.8249
[12]; [14]
  Emax_drug_B: 0.8249
[13]
  EC50: 1030 nM
  EmaxT,Neut: 0.2668
[13]; [14]
  Emax_drug_Neut: 0.2668

## Cc1c(-c2ccc(N3CCc4cccc(C(=O)Nc5nc6ccccc6s5)c4C3)nc2C(=O)O)cnn1CC12CC3CC(CC(C3)C1)C2 [A_1331852]
[1]
  EC50: 911 nM
  EmaxT,GMP: 1.14e-6
  Emax_drug_GMP: 1.14e-6
[2]
  EC50: 24.1 nM
  EmaxT,MK: 0.1880
[2]; [14]
  Emax_drug_MK: 0.1880
[3]
  EmaxT,GranP: 1.71e-6
  EC50: 949 nM
[3]; [14]
  Emax_drug_GranP: 1.71e-6
[4]
  EC50: 1960 nM
  EmaxT,HSC: 0.0828
[4]; [14]
  Emax_drug_HSC: 0.0828
[5]
  EC50: 1000 nM
  EmaxT,MPP: 2.15e-6
[5]; [14]
  Emax_drug_MPP: 2.15e-6
[6]
  EC50: 0.687 nM
  EmaxT,Gran: 2.2504
[6]; [14]
  Emax_drug_Gran: 2.2504
[7]
  EC50: 15.5 nM
  EmaxT,Mono: 0.0610
[7]; [14]
  Emax_drug_Mono: 0.0610
[8]
  EmaxT,ErythroidII: 1.51e-6
  EC50: 1160 nM
[8]; [14]
  Emax_drug_ErythroidII: 1.51e-6
[9]
  EmaxT,ErythroidI: 2.5750
  EC50: 32.3 nM
[9]; [14]
  Emax_drug_ErythroidI: 2.5750
[10]
  EmaxT,MonoP: 1.47e-5
  EC50: 182 nM
[10]; [14]
  Emax_drug_MonoP: 1.47e-5
[11]
  EC50: 21.2 nM
  EmaxT,LymP: 1.6e-5
[11]; [14]
  Emax_drug_LymP: 1.6e-5
[12]
  EC50: 13.1 nM
  EmaxT,B: 0.1187
[12]; [14]
  Emax_drug_B: 0.1187
[13]
  EC50: 400 nM
  EmaxT,Neut: 1.51e-7
[13]; [14]
  Emax_drug_Neut: 1.51e-7

## CC(C)C[C@H](NC(=O)[C@H](Cc1ccccc1)NC(=O)c1cnccn1)B(O)O [Bortezomib]
[1]; Homo sapiens
  EC50: 40.6 nM
[2]; Homo sapiens, 144 h, parameter from QSP model fitting, read-out: Emax_drug_MK
  Emax: 35.3%
[2]; Homo sapiens
  EC50: 38.3 nM
[3]; Homo sapiens, 144 h, parameter from QSP model fitting, read-out: Emax_drug_GranP
  Emax: 0.06%
[3]; Homo sapiens
  EC50: 132 nM
[4]; Homo sapiens, Hematopoietic stem cell, 144 h, parameter from QSP model fitting, read-out: Emax_drug_HSC
  Emax: 134%
[4]; Homo sapiens, Hematopoietic stem cell
  EC50: 105 nM
[5]; Homo sapiens, 144 h, parameter from QSP model fitting, read-out: Emax_drug_MPP
  Emax: 0.3%
[5]; Homo sapiens
  EC50: 33.1 nM
[6]; Homo sapiens, 144 h, parameter from QSP model fitting, read-out: Emax_drug_Gran
  Emax: 184%
[6]; Homo sapiens
  EC50: 68.6 nM
[7]; Homo sapiens, Monocyte, 144 h, parameter from QSP model fitting, read-out: Emax_drug_Mono
  Emax: 39%
[7]; Homo sapiens, Monocyte
  EC50: 83.6 nM
[8]; Homo sapiens, 144 h, parameter from QSP model fitting, read-out: Emax_drug_ErythroidII
  Emax: 19.1%
[8]; Homo sapiens
  EC50: 56.5 nM
[9]; Homo sapiens, 144 h, parameter from QSP model fitting, read-out: Emax_drug_ErythroidI
  Emax: 0.16%
[9]; Homo sapiens
  EC50: 60.8 nM
[10]; Homo sapiens, Monocyte, 144 h, parameter from QSP model fitting, read-out: Emax_drug_MonoP
  Emax: 0.17%
[10]; Homo sapiens, Monocyte
  EC50: 70.9 nM
[11]; Homo sapiens, Lymphocyte, 144 h, parameter from QSP model fitting, read-out: Emax_drug_LymP
  Emax: 0.16%
[11]; Homo sapiens, Lymphocyte
  EC50: 112 nM
[12]; Homo sapiens, B-cell, 144 h, parameter from QSP model fitting, read-out: Emax_drug_B
  Emax: 89.8%
[12]; Homo sapiens, B-cell
  EC50: 36.2 nM
[13]; Homo sapiens, Neutrophil, 144 h, parameter from QSP model fitting, read-out: Emax_drug_Neut
  Emax: 23.9%
[13]; Homo sapiens, Neutrophil
  EC50: 108 nM
